Results: article PMC12179037, “Degradation of beechwood xylan using food-grade bacteria-like particles displaying β-xylosidase from Limosilactobacillus fermentum” (Bioresources and Bioprocessing, 2025)

Target: T1, Xyl-L-CshA (LfXyl43 β-xylosidase with C-terminal CshA anchor) (Limosilactobacillus fermentum, UniProt Z9FCD9CVP2)
T1 construct: LfXyl43 fused through (GGGGS)3 linker to C-terminal surface anchor CshA of Lactiplantibacillus plantarum SK156; 6xHis tag; pET21b(+), E. coli BL21(DE3)
T1 sequence (Z9FCD9CVP2 1-551): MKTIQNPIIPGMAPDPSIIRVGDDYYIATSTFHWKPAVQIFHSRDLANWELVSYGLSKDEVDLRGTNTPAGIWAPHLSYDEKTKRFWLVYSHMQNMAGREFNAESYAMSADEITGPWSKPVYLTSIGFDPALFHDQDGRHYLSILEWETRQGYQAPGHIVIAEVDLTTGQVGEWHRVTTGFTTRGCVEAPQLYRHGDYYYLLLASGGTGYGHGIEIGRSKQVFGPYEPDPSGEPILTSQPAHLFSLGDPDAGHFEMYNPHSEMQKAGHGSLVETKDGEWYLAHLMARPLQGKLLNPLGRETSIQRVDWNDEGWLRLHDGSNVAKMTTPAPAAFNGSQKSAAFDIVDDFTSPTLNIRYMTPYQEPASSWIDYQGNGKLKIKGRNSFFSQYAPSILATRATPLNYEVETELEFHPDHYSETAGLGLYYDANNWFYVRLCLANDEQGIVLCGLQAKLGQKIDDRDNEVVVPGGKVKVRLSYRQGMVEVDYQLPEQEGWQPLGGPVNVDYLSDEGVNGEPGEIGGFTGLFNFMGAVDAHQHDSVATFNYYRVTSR
Assay: reducing sugar release (DNSA, […] nm); TLC
Type: biochemical
Conditions: purified fusion protein immobilised on bacteria-like particles; 2 mM substrate; 50 mM sodium phosphate pH 7.0; 35 °C; 5 min

OC1OC[C@@H](O[C@@H]2OC[C@@H](O)[C@H](O)[C@H]2O)[C@H](O)[C@H]1O (stereo partly shown) [xylobiose]
reducing sugar release (DNSA, 540 nm); TLC: CshA-L-Xyl and Xyl-L-CshA (i.e., with linker peptide) had higher catalytic activity towards all XOS substrates
